Measured values taken from patent publication US20100298249A1, “PHARMACEUTICAL OR COSMETIC PREPARATIONS FOR TOPICAL AND/OR PARENTERAL APPLICATION, PREPARATION METHODS THEREOF AND USE OF SAME” (priority 2007, published 2010).

Experiments:
[1] = humans; cited from earlier work
[2] = molecular target: hyaluronidase of bovine origin (Bos taurus, UniProt Q2YDK3); assay: Inhibitory effect on hyaluronidase activity of bovine origin (turbidimetry of nonhydrolysed hyaluronic acid); type: biochemical; conditions: various concentrations, FIG. 1
Experimental: Determination of the IC50 of GLZ, with or without Preincubation at 37° C.: GLZ, at various concentrations, is or is not preincubated for 20 minutes at 37° C. in the presence of the enzyme. The enzyme reaction is triggered by adding the hyaluronic acid solution (time T0). After incubation for 20 minutes, the nonhydrolysed hyaluronic acid is precipitated by adding acidic bovine albumin solution. In order to verify that the preincubation step has no effect on the stability of the hyaluronidase, an aliquot of a solution of the enzyme is placed at 37° C. for 20 minutes. Another aliquot is conserved in an ice bath for 19 minutes, and is then incubated at 37° C. for 1 minute. A solution of hyaluronic acid is then added to each aliquot (T0). After incubation for 15, 30 or 45 minutes, the nonhydrolysed hyaluronic acid is precipitated by addition of acidic bovine albumin solution. After the precipitation step, the turbidimetry of the solutions is determined on a spectrophotometer at a wavelength of 600 nm. The optical density (OD) of these solutions is subtracted from the OD of a control solution of hyaluronic acid (of the same concentration) not hydrolysed by the enzyme. This difference in OD, which is inversely proportional to the concentration of hyaluronic acid, is used to measure the activity of the hyaluronidase.

Chain of hyaluronidase of bovine origin (Q2YDK3 entry or part of it): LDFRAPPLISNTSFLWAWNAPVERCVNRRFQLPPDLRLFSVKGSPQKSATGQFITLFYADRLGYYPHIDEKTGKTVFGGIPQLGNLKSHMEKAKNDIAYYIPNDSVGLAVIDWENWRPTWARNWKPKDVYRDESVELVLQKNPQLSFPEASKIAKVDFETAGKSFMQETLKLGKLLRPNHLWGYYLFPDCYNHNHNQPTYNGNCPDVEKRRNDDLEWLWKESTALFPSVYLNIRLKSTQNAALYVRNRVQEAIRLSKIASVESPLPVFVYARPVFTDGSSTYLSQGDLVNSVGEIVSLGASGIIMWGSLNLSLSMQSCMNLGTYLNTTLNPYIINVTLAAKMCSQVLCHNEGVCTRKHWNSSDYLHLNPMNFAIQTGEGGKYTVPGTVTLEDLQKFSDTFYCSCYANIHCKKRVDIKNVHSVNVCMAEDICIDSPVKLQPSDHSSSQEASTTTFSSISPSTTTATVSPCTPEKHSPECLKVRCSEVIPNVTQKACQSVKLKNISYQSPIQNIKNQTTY

Row | Compound | excretion in the urine [1] | inhibitory effect on the bovine hyaluronidase [2]
1 | hyaluronic acid | less than 1 % of total clearance | 
2 | CC1(C)[C@@H](O[C@H]2O[C@H](C(=O)O)[C@@H](O)[C@H](O)[C@H]2O[C@@H]2O[C@H](C(=O)O)[C@@H](O)[C@H](O)[C@H]2O)CC[C@]2(C)[C@H]3C(=O)C=C4[C@@H]5C[C@@](C)(C(=O)O)CC[C@]5(C)CC[C@@]4(C)[C@]3(C)CC[C@@H]12 [GLZ, Glycyrrhizin] |  | dose-dependent
